The results in this text go back to PubChem BioAssay AID1259407 (Chemical Carcinogenesis Research Information System (CCRIS), 2018).

Activity calls are given as the source filed them. No rule for the calls is given here.

The data set has as its system CCRIS mutagenicity, Ames/micronucleus/aberration tests. Kind of data set: CCRIS mutagenicity studies.
[1] abbreviates: Test System: AMES SALMONELLA TYPHIMURIUM, Strain/Indicator: TA98, Metabolic Activation: NONE, Method: STANDARD PLATE.
Where [2] appears, read: Test System: AMES SALMONELLA TYPHIMURIUM, Strain/Indicator: TA100, Metabolic Activation: NONE, Method: STANDARD PLATE.

Take `Cl[Si](Cl)(Cl)Cl`: the mutagenic call under setting [1] is “inactive; negative”; the mutagenic call (Test System: AMES SALMONELLA TYPHIMURIUM, Strain/Indicator: TA98, Metabolic Activation: RAT LIVER S-9, AROCLOR 1254, Method: STANDARD PLATE) is “inactive; negative”; the mutagenic call under setting [2] was “inactive; negative”; the mutagenic call (Test System: AMES SALMONELLA TYPHIMURIUM, Strain/Indicator: TA100, Metabolic Activation: RAT LIVER S-9, AROCLOR 1254, Method: STANDARD PLATE) is “inactive; negative”; the mutagenic call (Test System: AMES SALMONELLA TYPHIMURIUM, Strain/Indicator: TA1535, Metabolic Activation: NONE, Method: STANDARD PLATE) was “inactive; negative”; the mutagenic call (Test System: AMES SALMONELLA TYPHIMURIUM, Strain/Indicator: TA1535, Metabolic Activation: RAT LIVER S-9, AROCLOR 1254, Method: STANDARD PLATE) is “inactive; negative”. The mutagenic call is, setting by setting: (Test System: AMES SALMONELLA TYPHIMURIUM, Strain/Indicator: TA1537, Metabolic Activation: NONE, Method: STANDARD PLATE) “inactive; negative”; (Test System: AMES SALMONELLA TYPHIMURIUM, Strain/Indicator: TA1537, Metabolic Activation: RAT LIVER S-9, AROCLOR 1254, Method: STANDARD PLATE) “inactive; negative”; (Test System: AMES SALMONELLA TYPHIMURIUM, Strain/Indicator: TA1538, Metabolic Activation: NONE, Method: STANDARD PLATE) “inactive; negative”; (Test System: AMES SALMONELLA TYPHIMURIUM, Strain/Indicator: TA1538, Metabolic Activation: RAT LIVER S-9, AROCLOR 1254, Method: STANDARD PLATE) “inactive; negative”; (Test System: E. COLI, Strain/Indicator: P3078 POLA, Metabolic Activation: NONE, Method: SPOT TEST) “inactive; negative”; (Test System: E. COLI, Strain/Indicator: P3078 POLA, Metabolic Activation: RAT LIVER S-9, AROCLOR 1254, Method: SPOT TEST) “inactive; negative”. The mutagenic call is “inactive; negative” (Test System: E. COLI, Strain/Indicator: W3110, Metabolic Activation: NONE, Method: SPOT TEST); “inactive; negative” (Test System: E. COLI, Strain/Indicator: W3110, Metabolic Activation: RAT LIVER S-9, AROCLOR 1254, Method: SPOT TEST); “inactive; negative” (Test System: MOUSE LYMPHOMA, Strain/Indicator: L5178Y (TK+/TK-), Metabolic Activation: NONE, Method: SUSPENSION/PLATE); “inactive; negative” (Test System: MOUSE LYMPHOMA, Strain/Indicator: L5178Y (TK+/TK-), Metabolic Activation: RAT, LIVER, S-9, Method: SUSPENSION/PLATE).

With `CC(N)c1ccccc1.CC(N)c1ccccc1.[Cl][Pt][Cl]` (centres undefined), the mutagenic call reads like this: under setting [1], “active; positive”; under setting [2], “active; positive”; (Test System: AMES SALMONELLA TYPHIMURIUM, Strain/Indicator: TA2410, Metabolic Activation: NONE, Method: STANDARD PLATE) “active; positive”.

As for `Nc1ccc2c(N)c3ccccc3nc2c1`, the mutagenic call runs as follows: (Test System: AMES SALMONELLA TYPHIMURIUM, Strain/Indicator: TA1535, Metabolic Activation: NONE, Method: PREINCUBATION) “inactive; negative”; (Test System: AMES SALMONELLA TYPHIMURIUM, Strain/Indicator: TA1535, Metabolic Activation: RAT, LIVER, S-9, TETRACHLOROBIPHENYL, Method: PREINCUBATION) “inactive; negative”; (Test System: AMES SALMONELLA TYPHIMURIUM, Strain/Indicator: TA1537, Metabolic Activation: NONE, Method: PREINCUBATION) “active; positive”; (Test System: AMES SALMONELLA TYPHIMURIUM, Strain/Indicator: TA1537, Metabolic Activation: RAT, LIVER, S-9, TETRACHLOROBIPHENYL, Method: PREINCUBATION) “active; positive”; (Test System: AMES SALMONELLA TYPHIMURIUM, Strain/Indicator: TA1538, Metabolic Activation: NONE, Method: PREINCUBATION) “active; positive”; (Test System: AMES SALMONELLA TYPHIMURIUM, Strain/Indicator: TA1538, Metabolic Activation: RAT, LIVER, S-9, TETRACHLOROBIPHENYL, Method: PREINCUBATION) “active; positive”. The mutagenic call (Test System: AMES SALMONELLA TYPHIMURIUM, Strain/Indicator: TA1977, Metabolic Activation: NONE, Method: PREINCUBATION) was “active; positive”; the mutagenic call (Test System: AMES SALMONELLA TYPHIMURIUM, Strain/Indicator: TA1977, Metabolic Activation: RAT, LIVER, S-9, TETRACHLOROBIPHENYL, Method: PREINCUBATION) is “active; positive”; the mutagenic call (Test System: AMES SALMONELLA TYPHIMURIUM, Strain/Indicator: TA1978, Metabolic Activation: NONE, Method: PREINCUBATION) was “inactive; negative”; the mutagenic call (Test System: AMES SALMONELLA TYPHIMURIUM, Strain/Indicator: TA1978, Metabolic Activation: RAT, LIVER, S-9, TETRACHLOROBIPHENYL, Method: PREINCUBATION) is “inactive; negative”.
